From patent US20240293551A1, “USE OF ST-TYPE LIPID COMPOUNDS IN PREPARATION OF NUCLEIC ACID DELIVERY REAGENT AND RELATED PRODUCT” (INSTITUTE OF BASIC MEDICAL SCIENCES CHINESE ACADEMY OF …, priority 2021, published 2024)

System: PGY-sRNA-26
Assay: In vivo delivery study of lipid-nucleic acid mixture (oral gavage, RT-qPCR of PGY-sRNA-26 in tissues)
Set-up: species or system mouse
Conditions: C57BL/6 mice, gavage, 100 μg lipid: 10 nmol PGY-sRNA-26, 12 hours; for oral delivery of single-stranded sRNA nucleic acids into mouse intestinal tissue: intestine; for delivery efficacy over each tissue and blood tested (broad-spectrum delivery): all tissues and blood tested
Procedure, shortened: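 C57BL/6 male mice (~6 weeks, 20-24 g), fasted 12 h, were gavaged with 10 nmol 3′-methylated PGY-sRNA-26 mixed with 100 μg lipid (heated 90° C. 15 min), versus saline or free sRNA (n=4 each). After 12 h, blood and tissues were Trizol-extracted; sRNA quantified by stem-loop RT-qPCR relative to U6.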

Q: Which “oral delivery of single-stranded sRNA nucleic acids into mouse blood” value does the source give for `C[C@]12C=CC(=O)C=C1CC[C@@H]1[C@@H]2C(=O)C[C@@]2(C)[C@H]1CC[C@]2(O)C(=O)CO` [Lipid 564] here?
A: The value was “can effectively orally deliver”.

Q: What about the “oral delivery of single-stranded sRNA nucleic acids into mouse brain tissue” value of the same molecule?
A: Its value is “can effectively orally deliver”.

Q: What about the “oral delivery of single-stranded sRNA nucleic acids into mouse femur” value of the same molecule?
A: The value was “can effectively orally deliver”.

Q: What about the “oral delivery of single-stranded sRNA nucleic acids into mouse heart tissue” value of the same molecule?
A: Its value is “can effectively orally deliver”.

Q: What about the “oral delivery of single-stranded sRNA nucleic acids into mouse intestinal tissue” value of the same molecule?
A: The value was “can effectively orally deliver”.

Q: And the “oral delivery of single-stranded sRNA nucleic acids into mouse kidney tissue” value?
A: Its value is “can effectively orally deliver”.

Q: And the “oral delivery of single-stranded sRNA nucleic acids into mouse liver tissue” value?
A: Its value is “can effectively orally deliver”.

Q: What about the “oral delivery of single-stranded sRNA nucleic acids into mouse lung tissue” value of the same molecule?
A: Its value is “can effectively orally deliver”.

Q: And the “oral delivery of single-stranded sRNA nucleic acids into mouse spleen tissue” value?
A: The value was “can effectively orally deliver”.

Q: And the “oral delivery of single-stranded sRNA nucleic acids into mouse stomach tissue” value?
A: Its value is “can effectively orally deliver”.

Q: `CCCCCCCCCCCCCCCCC(=O)O[C@H]1CC[C@@]2(C)C(=CC[C@H]3[C@@H]4CC[C@H]([C@H](C)CCCC(C)C)[C@@]4(C)CC[C@@H]32)C1` [Lipid 565] was tested. Which “oral delivery of single-stranded sRNA nucleic acids into mouse blood” value did it give?
A: The value was “can effectively orally deliver”.

Q: And the “oral delivery of single-stranded sRNA nucleic acids into mouse brain tissue” value?
A: The value was “can effectively orally deliver”.

Q: What about the “oral delivery of single-stranded sRNA nucleic acids into mouse femur” value of the same molecule?
A: Its value is “can effectively orally deliver”.

Q: And the “oral delivery of single-stranded sRNA nucleic acids into mouse heart tissue” value?
A: Its value is “can effectively orally deliver”.

Q: And the “oral delivery of single-stranded sRNA nucleic acids into mouse intestinal tissue” value?
A: The value was “can effectively orally deliver”.

Q: And the “oral delivery of single-stranded sRNA nucleic acids into mouse kidney tissue” value?
A: Its value is “can effectively orally deliver”.

Q: And the “oral delivery of single-stranded sRNA nucleic acids into mouse liver tissue” value?
A: Its value is “can effectively orally deliver”.

Q: What about the “oral delivery of single-stranded sRNA nucleic acids into mouse stomach tissue” value of the same molecule?
A: Its value is “can effectively orally deliver”.

Q: Which “oral delivery of single-stranded sRNA nucleic acids into mouse blood” value does the source give for `C[C@]12CCC(=O)C=C1CC[C@@H]1[C@@H]2[C@@H](O)C[C@@]2(C)[C@H]1CC[C@]2(O)C(=O)CO` [Lipid 566] here?
A: Its value is “can effectively orally deliver”.

Q: What about the “oral delivery of single-stranded sRNA nucleic acids into mouse femur” value of the same molecule?
A: The value was “can effectively orally deliver”.

Q: And the “oral delivery of single-stranded sRNA nucleic acids into mouse heart tissue” value?
A: Its value is “can effectively orally deliver”.

Q: What about the “oral delivery of single-stranded sRNA nucleic acids into mouse intestinal tissue” value of the same molecule?
A: The value was “can effectively orally deliver”.

Q: What about the “oral delivery of single-stranded sRNA nucleic acids into mouse kidney tissue” value of the same molecule?
A: Its value is “can effectively orally deliver”.

Q: What about the “oral delivery of single-stranded sRNA nucleic acids into mouse liver tissue” value of the same molecule?
A: Its value is “can effectively orally deliver”.

Q: What about the “oral delivery of single-stranded sRNA nucleic acids into mouse stomach tissue” value of the same molecule?
A: Its value is “can effectively orally deliver”.

Q: How did the “delivery efficacy over each tissue and blood tested (broad-spectrum delivery)” value turn out when `C[C@]12CC[C@H]3[C@@H](CCC4=CC(=O)CC[C@@]43CO)[C@@H]1CCC2=O` [Lipid 567, 19-hydroxy-androstane-4-ene-3,17-dione (8R,9S,10S,13S,14S)-10-(hydroxymethyl)-13-methyl-2,6,7,8,9,11,12,14,15,16-decahydro-1H-cyclopenta[a]phenanthrene-3,17-dione] was run?
A: Its value is “exhibited the best delivery efficacy”.

Q: And the “oral delivery of single-stranded sRNA nucleic acids into mouse blood” value?
A: Its value is “can effectively orally deliver”.

Q: What about the “oral delivery of single-stranded sRNA nucleic acids into mouse brain tissue” value of the same molecule?
A: Its value is “can effectively orally deliver”.

Q: What about the “oral delivery of single-stranded sRNA nucleic acids into mouse femur” value of the same molecule?
A: Its value is “can effectively orally deliver”.

Q: And the “oral delivery of single-stranded sRNA nucleic acids into mouse heart tissue” value?
A: The value was “can effectively orally deliver”.

Q: What about the “oral delivery of single-stranded sRNA nucleic acids into mouse intestinal tissue” value of the same molecule?
A: The value was “can effectively orally deliver”.

Q: What about the “oral delivery of single-stranded sRNA nucleic acids into mouse kidney tissue” value of the same molecule?
A: The value was “can effectively orally deliver”.

Q: And the “oral delivery of single-stranded sRNA nucleic acids into mouse liver tissue” value?
A: The value was “can effectively orally deliver”.

Q: What about the “oral delivery of single-stranded sRNA nucleic acids into mouse lung tissue” value of the same molecule?
A: The value was “can effectively orally deliver”.

Q: And the “oral delivery of single-stranded sRNA nucleic acids into mouse spleen tissue” value?
A: Its value is “can effectively orally deliver”.

Q: What about the “oral delivery of single-stranded sRNA nucleic acids into mouse stomach tissue” value of the same molecule?
A: Its value is “can effectively orally deliver”.

Q: What does the source list for `CCC(=O)O[C@H]1CC[C@H]2[C@@H]3CCC4=CC(=O)CC[C@]4(C)[C@H]3CC[C@]12C` [Lipid 568]?
A: delivery efficacy over each tissue and blood tested (broad-spectrum delivery): exhibited the best delivery efficacy; oral delivery of single-stranded sRNA nucleic acids into mouse blood: can effectively orally deliver; oral delivery of single-stranded sRNA nucleic acids into mouse brain tissue: can effectively orally deliver; oral delivery of single-stranded sRNA nucleic acids into mouse femur: can effectively orally deliver; oral delivery of single-stranded sRNA nucleic acids into mouse heart tissue: can effectively orally deliver; oral delivery of single-stranded sRNA nucleic acids into mouse intestinal tissue: can effectively orally deliver; oral delivery of single-stranded sRNA nucleic acids into mouse kidney tissue: can effectively orally deliver; oral delivery of single-stranded sRNA nucleic acids into mouse liver tissue: can effectively orally deliver; oral delivery of single-stranded sRNA nucleic acids into mouse lung tissue: can effectively orally deliver; oral delivery of single-stranded sRNA nucleic acids into mouse spleen tissue: can effectively orally deliver; oral delivery of single-stranded sRNA nucleic acids into mouse stomach tissue: can effectively orally deliver

Q: With `C=C1/C(=C\C=C2/CCC[C@]3(C)[C@@H]([C@H](C)/C=C/[C@H](C)C(C)C)CC[C@@H]23)C[C@@H](O)C[C@@H]1O` [Lipid 569] as the molecule, how does the “delivery efficacy over each tissue and blood tested (broad-spectrum delivery)” value read?
A: The value was “exhibited the best delivery efficacy”.

Q: And the “oral delivery of single-stranded sRNA nucleic acids into mouse blood” value?
A: The value was “can effectively orally deliver”.

Q: What about the “oral delivery of single-stranded sRNA nucleic acids into mouse brain tissue” value of the same molecule?
A: The value was “can effectively orally deliver”.

Q: What about the “oral delivery of single-stranded sRNA nucleic acids into mouse femur” value of the same molecule?
A: The value was “can effectively orally deliver”.

Q: And the “oral delivery of single-stranded sRNA nucleic acids into mouse heart tissue” value?
A: Its value is “can effectively orally deliver”.

Q: What about the “oral delivery of single-stranded sRNA nucleic acids into mouse intestinal tissue” value of the same molecule?
A: Its value is “can effectively orally deliver”.

Q: And the “oral delivery of single-stranded sRNA nucleic acids into mouse kidney tissue” value?
A: The value was “can effectively orally deliver”.

Q: And the “oral delivery of single-stranded sRNA nucleic acids into mouse liver tissue” value?
A: The value was “can effectively orally deliver”.

Q: What about the “oral delivery of single-stranded sRNA nucleic acids into mouse lung tissue” value of the same molecule?
A: The value was “can effectively orally deliver”.

Q: And the “oral delivery of single-stranded sRNA nucleic acids into mouse spleen tissue” value?
A: Its value is “can effectively orally deliver”.

Q: What about the “oral delivery of single-stranded sRNA nucleic acids into mouse stomach tissue” value of the same molecule?
A: The value was “can effectively orally deliver”.

Q: How did the “delivery efficacy over each tissue and blood tested (broad-spectrum delivery)” value turn out when `C=C1/C(=C\C=C2/CCC[C@]3(C)[C@@H]([C@H](C)/C=C/[C@H](C)C(C)(C)O)CC[C@@H]23)C[C@@H](O)C[C@@H]1O` [Lipid 570] was run?
A: The value was “exhibited the best delivery efficacy”.

Q: What about the “oral delivery of single-stranded sRNA nucleic acids into mouse blood” value of the same molecule?
A: Its value is “can effectively orally deliver”.

Q: And the “oral delivery of single-stranded sRNA nucleic acids into mouse brain tissue” value?
A: Its value is “can effectively orally deliver”.

Q: What about the “oral delivery of single-stranded sRNA nucleic acids into mouse femur” value of the same molecule?
A: Its value is “can effectively orally deliver”.

Q: And the “oral delivery of single-stranded sRNA nucleic acids into mouse heart tissue” value?
A: The value was “can effectively orally deliver”.

Q: And the “oral delivery of single-stranded sRNA nucleic acids into mouse intestinal tissue” value?
A: Its value is “can effectively orally deliver”.

Q: And the “oral delivery of single-stranded sRNA nucleic acids into mouse kidney tissue” value?
A: Its value is “can effectively orally deliver”.

Q: What about the “oral delivery of single-stranded sRNA nucleic acids into mouse liver tissue” value of the same molecule?
A: Its value is “can effectively orally deliver”.

Q: And the “oral delivery of single-stranded sRNA nucleic acids into mouse lung tissue” value?
A: The value was “can effectively orally deliver”.

Q: And the “oral delivery of single-stranded sRNA nucleic acids into mouse spleen tissue” value?
A: The value was “can effectively orally deliver”.

Q: And the “oral delivery of single-stranded sRNA nucleic acids into mouse stomach tissue” value?
A: Its value is “can effectively orally deliver”.

Q: Which results are given for `C=C1CC[C@H](O)C/C1=C/C=C1\CCC[C@]2(C)[C@@H]([C@H](C)CCCC(C)(C)O)CC[C@@H]12` [Lipid 571]?
A: oral delivery of single-stranded sRNA nucleic acids into mouse blood: can effectively orally deliver; oral delivery of single-stranded sRNA nucleic acids into mouse brain tissue: can effectively orally deliver; oral delivery of single-stranded sRNA nucleic acids into mouse femur: can effectively orally deliver; oral delivery of single-stranded sRNA nucleic acids into mouse heart tissue: can effectively orally deliver; oral delivery of single-stranded sRNA nucleic acids into mouse intestinal tissue: can effectively orally deliver; oral delivery of single-stranded sRNA nucleic acids into mouse kidney tissue: can effectively orally deliver; oral delivery of single-stranded sRNA nucleic acids into mouse liver tissue: can effectively orally deliver; oral delivery of single-stranded sRNA nucleic acids into mouse lung tissue: can effectively orally deliver; oral delivery of single-stranded sRNA nucleic acids into mouse spleen tissue: can effectively orally deliver; oral delivery of single-stranded sRNA nucleic acids into mouse stomach tissue: can effectively orally deliver

Q: Which results are given for `CC(=O)[C@H]1CC[C@H]2[C@@H]3CCC4=CC(=O)CC[C@]4(C)[C@H]3CC[C@]12C` [Lipid 575]?
A: delivery efficacy over each tissue and blood tested (broad-spectrum delivery): exhibited the best delivery efficacy; oral delivery of single-stranded sRNA nucleic acids into mouse blood: can effectively orally deliver; oral delivery of single-stranded sRNA nucleic acids into mouse brain tissue: can effectively orally deliver; oral delivery of single-stranded sRNA nucleic acids into mouse femur: can effectively orally deliver; oral delivery of single-stranded sRNA nucleic acids into mouse heart tissue: can effectively orally deliver; oral delivery of single-stranded sRNA nucleic acids into mouse intestinal tissue: can effectively orally deliver; oral delivery of single-stranded sRNA nucleic acids into mouse kidney tissue: can effectively orally deliver; oral delivery of single-stranded sRNA nucleic acids into mouse liver tissue: can effectively orally deliver; oral delivery of single-stranded sRNA nucleic acids into mouse lung tissue: can effectively orally deliver; oral delivery of single-stranded sRNA nucleic acids into mouse spleen tissue: can effectively orally deliver; oral delivery of single-stranded sRNA nucleic acids into mouse stomach tissue: can effectively orally deliver
